System: murine fibroblasts (NIH3T3) over-expressing human IGF-1 receptor
Assay: Inhibition of IGF-stimulated cell proliferation (BrdU incorporation), Test (c)
Format: cell-based
Settings: inhibition of IGF-stimulated proliferation in NIH3T3 over-expressing human IGF-1 receptor
Experimental: The construction of murine fibroblasts (NIH3T3) over-expressing human IGF-1 receptor has been described by Lammers et al (EMBO J, 8, 1369-1375, 1989). These cells show a proliferative response to IGF-I which can be measured by BrdU incorporation into newly synthesised DNA. Compound potency was determined as causing inhibition of the IGF-stimulated proliferation in the following assay:
Cell Proliferation ELISA, BrdU (calorimetric) [Boehringer Mannheim (Diagnostics and Biochemicals) Ltd, UK. Cat no. 1 647 229].
DMEM, FCS, Glutamine, HBSS (all from Life Technologies Ltd., UK).
Human recombinant IGF-1 Animal/media grade (GroPep Limited ABN 78 008 176 298, Australia. Cat No. IU 100).
100 μg of lyophilised IGF was reconstituted in 100 ul of 10 mM HCl. Add 400 μl of 1 mg/ml BSA in PBS 25 μl aliquots @ 200 μg/ml IGF-1
10 μl of stock IGF+12.5 ml growth medium to give 8× stock of 160 ng/ml.
DMEM, 10% FCS, 2 mM glutamine.
DMEM, 1% charcoal/dextran stripped FCS, 2 mM glutamine.
Compounds are initially dissolved in DMSO to 10 mM, followed by dilutions in DMEM+1% FCS+glutamine to give a range from […] in 1-0.00045% DMSO final concentration in assay well. […]
The incorporation of BrdU in the cells (after a 4 h incorporation period) was assessed using the BrdU Cell Proliferation Elisa according to the manufacturer's protocol. […]

Compound | IC50 [µM]
Cc1cc(Nc2nccs2)nc(N2CCC[C@H]2c2cc(-c3ccccn3)no2)n1 [Example 1, S-6-Methyl-4-(2-thiazolylamino)-2-{2-[3-(pyrid-2-yl)isoxazol-5-yl]pyrrolidin-1-yl}pyrimidine] | 0.17
Cc1cc(Nc2ncc[nH]2)nc(N2CCC[C@H]2c2cc(-c3ccccn3)no2)n1 [Example 23, S-6-Methyl-4-(imidazol-2-ylamino)-2-{2-[3-(pyridin-2-yl)isoxazol-5-yl]pyrrolidin-1-yl}pyrimidine] | 0.45

From US20090306116A1, “PYRIMIDINE DERIVATIVES FOR THE INHIBITION OF IGF-IR TYROSINE KINASE ACTIVITY” (AstraZeneca AB, priority 2005, published 2009)
